Measured values taken from patent publication US20050238672A1, “Antifungal drug delivery” (priority 2004, published 2005).

How the values were obtained:
[1] = solubility of terbinafine in benzyl alcohol; assay type: physicochemical; details: room temperature, with stirring
Experimental: In a preferred embodiment, the antifungal agent, terbinafine (an allylamine compound) used to treat infections of the nails and of the sub and peri-plantar regions of the foot (moccasin distribution) is dissolved in benzyl alcohol at room temperature with the aid of stirring. […] Two grams of terbinafine are therefore dissolved in 5 ml of benzyl alcohol. To this solution 85 ml of ethyl alcohol anhydrous and 10ml of distilled water are added. The final concentration of the active compound terbinafine, is 2% and that of the preferred carrier, benzyl alcohol 5%.

[2] = system: T. rubrum, T. mentagrophytes; assay: clinical study, topical application, onychomycosis; assay type: in vivo, human; details: after discontinuation of therapy
Source text: A total of 10 patients, identified clinically and mycologically (T. rubrum, T. mentagrophytes) were all mycologically cured. Within two weeks of applications all patients with intractable, longstanding (of up to 15 years or more) moccasin distribution fungal dermatomycosis were clinically and mycologically cured. After 2 months of application all patients with severe onychomycosis, also of very long standing duration, appeared mycologically cured (negative cultures). […] Some nails continued to display dystrophic changes commensurate with the slow rate of nail growth and replacement. This persistent and possible prophylactic response is attributed to the unique solubility characteristics of the compounds in question and to the ability of the selected solvents to deliver the drug to the subungual or keratin rich regions where the fungi accumulate, and to persist at such sites in a microcrystalline form after precipitation.
Compositions according to the present invention can be applied by conventional methods, including the use of a small brush with a nail-lacquer bottle, a roll-on applicator, or by a squeeze bottle with a small opening. In the results cited above, a small brush with a nail-lacquer bottle was used.

- solubility in benzyl alcohol [1]: greater than 40 % w/vol
SMILES: CN(C/C=C/C#CC(C)(C)C)Cc1cccc2ccccc12 [terbinafine]
- recurrence upon discontinuation of therapy [2]: lack of any recurrence
